Laboratory results as given in the supplement of paper PMC10307832.

Legend:
Assay in all cases: relative viability (nuclei count vs DMSO), 5 days (fraction); higher = more cells survive
HOP-62 = tested on: HOP-62
How it was run: (§1)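 A single step with final 0.05% Triton X-100, 1% formaldehyde and 1 ug/ml Hoechst fixed the cells and stained nuclei 5 days after treatment. Lung cancer cell lines in 1536-well plates had been treated by pin tool the day after seeding with one drug alone or a fixed anchor-drug dose plus five library-drug doses (not always all listed) in √10 steps, and nuclei were counted on 4× images. Relative viability is the ratio of nuclei in treated wells to nuclei in vehicle wells, taken as the median of duplicate plates.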

NCI-H23 = tested on: NCI-H23
How it was run: as §1

HARA = tested on: HARA
How it was run: as §1

NCI-H2228 = tested on: NCI-H2228
How it was run: as §1

A-427 = tested on: A-427
How it was run: as §1

NCI-H2009 = tested on: NCI-H2009
How it was run: as §1

LCLC-103H = tested on: LCLC-103H
How it was run: as §1

HCC-827 = tested on: HCC-827
How it was run: as §1

NCI-H1437 = tested on: NCI-H1437
How it was run: as §1

SK-LU-1 = tested on: SK-LU-1
How it was run: as §1

NCI-H460 = tested on: NCI-H460
How it was run: as §1

O=c1cc(N2CCOCC2)oc2c(-c3cccc4c3sc3ccccc34)cccc12 + O=C(CCCCCCC(=O)Nc1ccccc1)NO [Vorinostat] (partner 1 µM)
relative viability (HOP-62; first compound 0.1 µM): 0.58
relative viability (HOP-62; first compound 0.3162 µM): 0.605
relative viability (HOP-62; first compound 1 µM): 0.685
relative viability (NCI-H23; first compound 0.01 µM): 0.555
relative viability (NCI-H23; first compound 0.03162 µM): 0.68
relative viability (NCI-H23; first compound 0.3162 µM): 0.795
relative viability (NCI-H23; first compound 1 µM): 0.537
relative viability (HARA; first compound 0.01 µM): 0.409
relative viability (HARA; first compound 0.03162 µM): 0.588
relative viability (HARA; first compound 0.1 µM): 0.543
relative viability (HARA; first compound 0.3162 µM): 0.546
relative viability (HARA; first compound 1 µM): 0.46
relative viability (NCI-H2228; first compound 0.01 µM): 0.669
relative viability (NCI-H2228; first compound 0.03162 µM): 0.896
relative viability (NCI-H2228; first compound 0.1 µM): 0.562
relative viability (NCI-H2228; first compound 0.3162 µM): 0.651
relative viability (NCI-H2228; first compound 1 µM): 0.722
relative viability (A-427; first compound 0.01 µM): 0.844
relative viability (A-427; first compound 0.03162 µM): 0.95
relative viability (A-427; first compound 0.1 µM): 0.843
relative viability (A-427; first compound 0.3162 µM): 0.82
relative viability (A-427; first compound 1 µM): 0.86
relative viability (NCI-H2009; first compound 0.01 µM): 0.715
relative viability (NCI-H2009; first compound 0.03162 µM): 0.727
relative viability (NCI-H2009; first compound 0.1 µM): 0.696
relative viability (NCI-H2009; first compound 0.3162 µM): 0.761
relative viability (NCI-H2009; first compound 1 µM): 0.7
relative viability (LCLC-103H; first compound 0.01 µM): 0.739
relative viability (LCLC-103H; first compound 0.03162 µM): 0.824
relative viability (LCLC-103H; first compound 0.1 µM): 0.826
relative viability (LCLC-103H; first compound 0.3162 µM): 0.826
relative viability (LCLC-103H; first compound 1 µM): 0.857
relative viability (HCC-827; first compound 0.01 µM): 0.897
relative viability (HCC-827; first compound 0.03162 µM): 0.848
relative viability (HCC-827; first compound 0.1 µM): 0.643
relative viability (HCC-827; first compound 0.3162 µM): 0.779
relative viability (HCC-827; first compound 1 µM): 0.774
relative viability (NCI-H1437; first compound 0.01 µM): 0.822
relative viability (NCI-H1437; first compound 0.03162 µM): 0.874
relative viability (NCI-H1437; first compound 0.1 µM): 0.866
relative viability (NCI-H1437; first compound 0.3162 µM): 0.784
relative viability (NCI-H1437; first compound 1 µM): 0.806
relative viability (SK-LU-1; first compound 0.01 µM): 0.79
relative viability (SK-LU-1; first compound 0.03162 µM): 0.707
relative viability (SK-LU-1; first compound 0.1 µM): 0.751
relative viability (SK-LU-1; first compound 0.3162 µM): 0.778
relative viability (SK-LU-1; first compound 1 µM): 0.733
relative viability (NCI-H460; first compound 0.01 µM): 0.68
relative viability (NCI-H460; first compound 0.03162 µM): 0.773
relative viability (NCI-H460; first compound 0.1 µM): 0.957
relative viability (NCI-H460; first compound 0.3162 µM): 0.655
relative viability (NCI-H460; first compound 1 µM): 0.75
